Patent US20100056468A1, “Pyrimidine Derivatives As Anticancer Agents” (University Health Network, priority 2007, published 2010)

What was measured:
Assay in all cases: In vitro cell proliferation assay (WST.1, Table 5)
MCF7 = assay type: cell-based; details: Homo sapiens, 72 h; MCF7, day 3
Protocol: (§1) These cell lines were grown in Iscove's MDM supplemented with 5% fetal calf serum (FCS), 50 μM 2-mercaptoethanol, 100 μg/ml penicillin, and 100 μg/ml streptomycin. Cell lines growing in suspension were maintained at 0.5-1.5×10^6 cell/ml, while adherent cell lines were maintained at subconfluent densities.
(§2) Cell lines were seeded in triplicate at 10^4 cells/100 μl in 96-well plates. Peripheral blood mononuclear cells were seeded in triplicate at 10^5 cells/100 μl in 96-well plate. Different test compounds were added immediately at final concentrations ranging between 0 to 100 μM. All compounds were dissolved in sterile deionized water, so water was added to the control wells. On day 3, WST.1 assay (Roche) was used to measure the effect of different test compounds on cell growth. WST.1 assay is a calorimetric assay for the nonradioactive quantification of cell proliferation, cell viability, and cytotoxicity. The assay was performed according to manufacturer's instructions (Roche). It relies on the cleavage by cellular enzymes of WST.1 (water soluble tetrazolium salt: 4-[3-(4-iodophenyl)-2-(4-nitrophenyl)-2H-5-tetrazolio]-1,3-benzene disulfonate) to formazan. The amount of formazan dye formed correlates to the number of metabolically active cells in the culture and is readily read in an ELISA microplate reader using an absorbance wavelength of 440 nm. These OD values are plotted against concentrations of different compounds and IC50 is determined for each compound.

OCI-AML-1 = assay type: cell-based; details: Homo sapiens, 72 h; OCI-AML-1, day 3
Protocol: as §1, §2

OCI-My-2 = assay type: cell-based; details: Homo sapiens, 72 h; OCI-My-2, day 3
Protocol: as §1, §2

OCI-AML-2 = assay type: cell-based; details: Homo sapiens, OCI-AML2, 72 h; OCI-AML-2, day 3
Protocol: as §1, §2

OCVR4 = assay type: cell-based; details: Homo sapiens, 72 h; OCVR4, day 3
Protocol: as §1, §2

MDA468 = assay type: cell-based; details: Homo sapiens, 72 h; MDA468, day 3
Protocol: as §1, §2

OCI-Ly-7 = assay type: cell-based; details: Homo sapiens, OCI-Ly7, 72 h; OCI-Ly-7, day 3
Protocol: as §1, §2

PC3 = assay type: cell-based; details: Homo sapiens, PC-3, 72 h; PC3, day 3
Protocol: as §1, §2

SKW3 = assay type: cell-based; details: Homo sapiens, 72 h; SKW3, day 3
Protocol: as §1, §2

CCD967 = assay type: cell-based; details: Homo sapiens, CCD-967, 72 h; CCD967 normal skin line, day 3
Protocol: as §1, §2

T47D = assay type: cell-based; details: Homo sapiens, 72 h, day 3
Protocol: as §1, §2

COLO205 = assay type: cell-based; details: Homo sapiens, COLO 205, 72 h; COLO205, day 3
Protocol: as §1, §2

SNB19 = assay type: cell-based; details: Homo sapiens, SNB-19, 72 h; SNB19, day 3
Protocol: as §1, §2

HS58T = assay type: cell-based; details: Homo sapiens, 72 h, day 3
Protocol: as §1, §2

LOX = assay type: cell-based, human; details: Homo sapiens, 72 h, day 3
Protocol: as §1, §2

Measured: IC50

O=c1[nH]c(=O)n([C@@H]2O[C@H](CO)C(O)C2O)c(I)c1Br (stereo partly drawn)
> 50 µM: all assays above

CNc1cc(=O)[nH]c(=O)n1C1OC(CO)C(O)C1O (stereo not drawn)
> 50 µM: all assays above

CN(C)c1cc(=O)[nH]c(=O)n1C1OC(CO)C(O)C1O (stereo not drawn)
> 50 µM: all assays above
